In article PMC2874393, “Comparison of zwitterionic N-alkylaminomethanesulfonic acids to related compounds in the Good buffer series” (Beilstein Journal of Organic Chemistry, 2010):
Like-named read-outs stand apart in the source and are kept apart here. Marks after values point to notes of the source that are not given here.

Assays:
[1] = pKa of ammonium ion proton dissociation by aqueous solution titrimetry; type: physicochemical
Protocol: We then performed titrations to determine the pKa values of proton dissociation from the ammonium ion (1a and equivalent). The pKa values determined for these compounds, along with those of the analogous aminoethanesulfonate and aminopropanesulfonate buffer pKa values for comparison is presented in Table 1.
Acid dissociation constants for the ammonium ions were determined by aqueous solution titrimetry (min. 5 repetitions from low to high, then high to low pH) using standardized NaOH and HCl solutions.

[2] = system: E. coli strain HB101; test: culture growth with buffer compounds, optical density at 600 nm; type: cell-based; conditions: for Final OD600: E. coli HB101, pH 7.2, 37 °C, 18 h, 3 trials; for culture growth support: all concentrations tested (10, 20, 50 mM); for toxicity or culture growth inhibition: higher concentrations of buffer
Protocol: In order to assess the potential utility of these compounds as biological buffers, we conducted an initial experiment with different concentrations of the new compounds with E. coli strain HB101 at pH 7.2 and 37 °C for 18 h. Culture growth was estimated by optical density measurement at 600 nm, and the results are summarized in Table 2 (in which each value is the result of 3 separate trials, with an overall standard error for all final measurements of 0.025).

[3] = aqueous solubility (observation); type: physicochemical; conditions: at low pH / pH ≤ pKa
Description: All of the compounds except 2 show evidence of a systematic decrease in pKa as the number of carbons between the amine and sulfonic acid functional groups decreases.

[4] = cited from earlier work; for pKa: in water, ref [4]; for pKa (ethyl analog) / pKa (propyl analog): ref [1],[5],[7]
[5] = ammonium ion, aqueous titration
[6] = 2nd (ammonium) dissociation constant value

O=S(=O)(O)CN1CCN(CS(=O)(=O)O)CC1 [compound 3, Piperazine-N,N′-bis(methanesulfonic acid)]
pKa ([1]; 0.3 M solution at 20 °C): 4.8
pKa ([1]; 2nd (ammonium) dissociation constant value, aqueous titration): 4.9
Final OD600 ([2]; 10 mM buffer): 1.23
Final OD600 ([2]; 20 mM buffer): 1.21
Final OD600 ([2]; 50 mM buffer): 1.08
culture growth support [2]: supported culture growth at all concentrations tested
toxicity or culture growth inhibition [2]: possible toxicity or other culture growth inhibition
aqueous solubility [3]: does not demonstrate the limited aqueous solubility

NCS(=O)(=O)O [aminomethanesulfonic acid]
pKa [4]: 5.75

NS(=O)(=O)O [sulfamic acid]
pKa [4]: 1.01

O=S(=O)(O)CCNC1CCCCC1 [CHES, 2-(cyclohexylamino)ethanesulfonic acid]
pKa (ethyl analog) [4]: 9.3

O=S(=O)(O)CCN1CCN(CCO)CC1 [HEPES]
pKa (ethyl analog) [4]: 7.5

O=S(=O)(O)CCCN1CCN(CCO)CC1 [EPPS, 4-(2-hydroxyethyl)-1-piperazinepropanesulfonic acid]
pKa (propyl analog) [4]: 8.0

O=S(=O)(O)CN1CCOCC1 [compound 1, N-Morpholinomethanesulfonic acid]
pKa ([1]; 0.3 M solution at 20 °C): 3.8
pKa [1, 5]: 3.9
Final OD600 ([2]; 10 mM buffer): 1.16
Final OD600 ([2]; 20 mM buffer): 1.22
Final OD600 ([2]; 50 mM buffer): 1.18
culture growth support [2]: supported culture growth at all concentrations tested

O=S(=O)(O)CCCN1CCN(CCCS(=O)(=O)O)CC1 [PIPPS, piperazine-N,N′-bis(3-propanesulfonic acid]
pKa (propyl analog) [4, 6]: 8.0^b

O=S(=O)(O)CCN1CCN(CCS(=O)(=O)O)CC1 [PIPES, reference compound]
aqueous solubility [3]: limited aqueous solubility
pKa (ethyl analog) [4, 6]: 6.8^b

O=S(=O)(O)CNC1CCCCC1 [compound 4, Cyclohexylaminomethanesulfonic acid]
pKa ([1]; 0.3 M solution at 20 °C): 7.8
pKa [1, 5]: ~7
aqueous solubility [3]: limited solubility in aqueous solution

O=S(=O)(O)CN1CCN(CCO)CC1 [compound 2, N-(2-hydroxyethyl)piperazine-N′-methanesulfonic acid]
pKa ([1]; 0.25M solution at 20 °C): 7.4
pKa [1, 5]: 7.9
Final OD600 ([2]; 10 mM buffer): 1.16
Final OD600 ([2]; 20 mM buffer): 1.08
Final OD600 ([2]; 50 mM buffer): 0.66
culture growth support [2]: supported culture growth at all concentrations tested
toxicity or culture growth inhibition [2]: possible toxicity or other culture growth inhibition
